Our source for the EC50 values is patent US20240217990A1 (Gilead Sciences, Inc., priority 2021, published 2024).

The target of one assay is T1, TLR7 (Homo sapiens, UniProt Q9NYK1).
T1 construct: Human peripheral blood mononuclear cells (PBMCs) consist of lymphocytes, monocytes and dendritic cells that express TLR7, TLR8 and TLR9; endogenous in cells; host or cells: cryopreserved human PBMCs from healthy donors
T1 sequence (Q9NYK1 27-1049): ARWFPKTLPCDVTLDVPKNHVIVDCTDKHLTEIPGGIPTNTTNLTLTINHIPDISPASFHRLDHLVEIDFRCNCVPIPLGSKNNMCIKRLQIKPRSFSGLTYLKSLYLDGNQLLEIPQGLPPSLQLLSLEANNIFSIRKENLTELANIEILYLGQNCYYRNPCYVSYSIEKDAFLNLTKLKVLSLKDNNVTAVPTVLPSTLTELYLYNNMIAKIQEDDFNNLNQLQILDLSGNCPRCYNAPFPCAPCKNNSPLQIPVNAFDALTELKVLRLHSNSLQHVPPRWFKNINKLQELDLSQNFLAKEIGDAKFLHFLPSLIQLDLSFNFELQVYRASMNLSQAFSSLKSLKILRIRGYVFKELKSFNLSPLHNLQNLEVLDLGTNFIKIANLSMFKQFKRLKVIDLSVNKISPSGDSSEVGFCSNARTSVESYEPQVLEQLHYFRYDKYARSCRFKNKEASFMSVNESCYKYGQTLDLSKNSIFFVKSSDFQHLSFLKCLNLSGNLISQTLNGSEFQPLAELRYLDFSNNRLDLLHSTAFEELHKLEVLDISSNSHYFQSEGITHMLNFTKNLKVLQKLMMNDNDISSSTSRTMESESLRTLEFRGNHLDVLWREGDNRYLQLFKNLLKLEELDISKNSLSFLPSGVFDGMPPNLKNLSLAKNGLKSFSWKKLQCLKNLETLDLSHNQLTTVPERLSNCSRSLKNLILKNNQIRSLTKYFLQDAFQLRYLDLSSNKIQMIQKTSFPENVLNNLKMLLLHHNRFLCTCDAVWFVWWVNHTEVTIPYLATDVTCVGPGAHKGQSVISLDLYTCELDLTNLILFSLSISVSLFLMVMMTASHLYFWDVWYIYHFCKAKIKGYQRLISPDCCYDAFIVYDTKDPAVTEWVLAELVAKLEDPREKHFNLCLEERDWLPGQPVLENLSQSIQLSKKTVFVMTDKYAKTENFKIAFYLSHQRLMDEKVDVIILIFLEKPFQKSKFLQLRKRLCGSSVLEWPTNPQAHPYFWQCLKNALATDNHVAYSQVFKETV
Put plainly: TLR7 human PBMC cell-based assay (antagonist, GS-986 stimulated cytokine release). Conditions: human PBMCs; TLR7 agonist GS-986 400 nM, 6 hours; cytokines (IL-6 and IFNα) in supernatant; read-out: TLR-7 EC50. An outline of the steps: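 Cryopreserved healthy-donor PBMCs (100,000/well, RPMI-1640 + 10% FBS) pre-incubated 1 h at 37 °C with antagonist (10-point dose response, quadruplicate), then stimulated 6 h with GS-986 at 400 nM final. Supernatant IL-6 and IFNα measured by electrochemiluminescence immunoassay; EC50 from sigmoidal fit.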

A further assay addresses T2, TLR8 (Homo sapiens, UniProt Q9NR97).
T2 construct: Human peripheral blood mononuclear cells (PBMCs) consist of lymphocytes, monocytes and dendritic cells that express TLR7, TLR8 and TLR9; endogenous in cells; host or cells: cryopreserved human PBMCs from healthy donors
T2 sequence (Q9NR97 27-1041): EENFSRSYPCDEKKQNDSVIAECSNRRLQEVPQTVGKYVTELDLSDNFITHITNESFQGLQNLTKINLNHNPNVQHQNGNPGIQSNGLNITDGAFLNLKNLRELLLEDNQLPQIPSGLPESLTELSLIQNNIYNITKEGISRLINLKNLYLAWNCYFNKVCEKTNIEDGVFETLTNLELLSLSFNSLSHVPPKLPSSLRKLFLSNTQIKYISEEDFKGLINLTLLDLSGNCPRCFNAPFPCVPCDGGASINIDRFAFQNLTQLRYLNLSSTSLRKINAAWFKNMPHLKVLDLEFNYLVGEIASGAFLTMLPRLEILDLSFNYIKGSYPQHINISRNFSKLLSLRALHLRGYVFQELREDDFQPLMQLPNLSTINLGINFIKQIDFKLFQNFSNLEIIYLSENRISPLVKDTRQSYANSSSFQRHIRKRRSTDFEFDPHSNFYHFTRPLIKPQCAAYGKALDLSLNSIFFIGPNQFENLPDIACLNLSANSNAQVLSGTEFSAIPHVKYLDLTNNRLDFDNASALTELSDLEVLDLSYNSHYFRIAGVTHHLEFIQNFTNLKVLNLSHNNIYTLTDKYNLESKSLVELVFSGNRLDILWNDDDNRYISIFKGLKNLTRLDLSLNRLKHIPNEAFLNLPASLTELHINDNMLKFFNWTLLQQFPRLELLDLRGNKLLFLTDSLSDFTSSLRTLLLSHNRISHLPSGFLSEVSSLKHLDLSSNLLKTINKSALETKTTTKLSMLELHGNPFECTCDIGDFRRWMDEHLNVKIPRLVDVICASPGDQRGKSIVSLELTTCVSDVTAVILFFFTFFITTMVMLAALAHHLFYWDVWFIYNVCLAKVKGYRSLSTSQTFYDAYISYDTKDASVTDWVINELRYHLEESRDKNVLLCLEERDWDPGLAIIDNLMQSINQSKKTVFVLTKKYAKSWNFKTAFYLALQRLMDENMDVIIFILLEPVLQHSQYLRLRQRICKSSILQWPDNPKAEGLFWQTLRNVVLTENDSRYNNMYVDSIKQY
As to the kind of experiment: TLR8 human PBMC cell-based assay (antagonist, Compound A stimulated cytokine release). Particulars: human PBMCs; TLR8 agonist Compound A 800 nM, 6 hours; cytokines (TNFa and IL 12p40) in supernatant; read-out: TLR-8 EC50. An outline of the steps: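 Cryopreserved donor PBMCs (100,000/well, RPMI + 10% FBS) were preincubated 1 h with antagonist (10-point dose response, quadruplicate), then stimulated with Compound A (800 nM final) for 6 h at 37 °C. TNFa and IL-12p40 in supernatants were measured by electrochemiluminescence; sigmoidal fits gave EC50.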

As usually defined, the EC50 is the midpoint of the concentration-response curve. On to `Cc1cc(-c2[nH]c3cc(-c4cnc5c(c4)CN(CCO)CC5)sc3c2C(C)C)cn2ncnc12` [Example 190], for which the results for the half-maximal effective concentration (EC50) on TLR7 and at TLR8 were 2.4 nM and 0.5 nM, respectively.

For the molecule `Cc1cc(-c2[nH]c3cc(C4CCC5(CC4)CN(CCO)C5)sc3c2C(C)C)cn2ncnc12` [Example 191], the concentration giving a half-maximal response (EC50) came out at 0.2 nM on TLR7 and 1 nM at TLR8.

For `Cc1c(-c2[nH]c3cc(C(=O)N(C)C4CCN(CCO)CC4)sc3c2C(C)C)cn2ncnc2c1C` [Example 192], the EC50 was 1.2 nM on TLR7 and 0.5 nM at TLR8.

Turning to `Cc1cc(CN2CCC(c3cc4[nH]c(-c5cc(C)c6ncnn6c5)c(C(C)C)c4s3)CC2)no1` [Example 193], the EC50 at TLR7 is 18.2 nM; at TLR8 it was 12.3 nM.

Consider `Cc1cc(-c2[nH]c3cc(C4CCN(Cc5ccn(C)n5)CC4)sc3c2C(C)C)cn2ncnc12` [Example 194], for which the 50% effective concentration (EC50) at TLR7 was 4.5 nM; on TLR8, 0.6 nM.

As to `Cc1cc(-c2[nH]c3cc(C4CCN(C5CCC5)CC4)sc3c2C(C)C)cn2ncnc12` [Example 195], the results for the concentration for a half-maximal effect (EC50) on TLR7 and at TLR8 were 2.5 nM and 0.3 nM, respectively.

Take `Cc1cc(-c2[nH]c3cc(C4CCN(C(=O)CN5CCCC5)CC4)sc3c2C(C)C)cn2ncnc12` [Example 196, 1-(4-(6-isopropyl-5-(8-methyl-[1,2,4]triazolo[1,5-a]pyridin-6-yl)-4H-thieno[3,2-b]pyrrol-2-yl)piperidin-1-yl)-2-(pyrrolidin-1-yl)ethan-1-one]: the half-maximal effective concentration (EC50) at TLR7 was determined as 1.3 nM; at TLR8, 4.2 nM.

Consider `Cc1cc(-c2[nH]c3cc(C4CCN(C(=O)C5(N)CCC5)CC4)sc3c2C(C)C)cn2ncnc12` [Example 197], for which the EC50 at TLR7 turned out to be 33.1 nM; on TLR8, 79.7 nM.

`Cc1cc(-c2[nH]c3cc(C4CCN(C(=O)[C@H]5CCCN5C)CC4)sc3c2C(C)C)cn2ncnc12` [Example 199]: the EC50 worked out at 3.9 nM on TLR7 and 5.3 nM at TLR8.

For the molecule `Cc1cc(-c2[nH]c3cc(C4CCN(C(=O)[C@@H]5CCCN5C)CC4)sc3c2C(C)C)cn2ncnc12` [Example 200], the half-maximal effective concentration (EC50) at TLR7 stood at 3.8 nM; at TLR8 it was 10 nM.

On to `Cc1cc(-c2[nH]c3cc(C4CCN(C(=O)C5CCN(C)C5)CC4)sc3c2C(C)C)cn2ncnc12` (centres unmarked) [Example 201], for which the values for the EC50 at TLR7 and on TLR8 were 0.7 nM and 8.6 nM, respectively.

As to `Cc1cc(-c2[nH]c3cc(C4CCN(C(=O)C5CNC5)CC4)sc3c2C(C)C)cn2ncnc12` [Example 202], the concentration giving a half-maximal response (EC50) on TLR7 came out at 1.5 nM; on TLR8, 23.8 nM.

As to `Cc1cc(-c2[nH]c3cc(C4CCN(C(=O)C5CCCN(C)C5)CC4)sc3c2C(C)C)cn2ncnc12` (centres unmarked) [Example 203], the EC50 is 0.4 nM at TLR7 and 5.6 nM on TLR8.

As for `Cc1cc(-c2[nH]c3cc(C4CCN(C(=O)C5CN6CCC5CC6)CC4)sc3c2C(C)C)cn2ncnc12` (centres unmarked) [Example 204], the values for the EC50 at TLR7 and at TLR8 were 0.5 nM and 9.9 nM, respectively.

For the molecule `Cc1cc(-c2[nH]c3cc(C4CCN(C(=O)[C@H]5CCN(C)C5)CC4)sc3c2C(C)C)cn2ncnc12` [Example 205], the EC50 at TLR7 was 0.5 nM; at TLR8, 9 nM.

For `Cc1cc(-c2[nH]c3cc(C4CCC5(CC4)CN(C(=O)[C@@H]4CCCN4C)C5)sc3c2C(C)C)cn2ncnc12` [Example 206], the EC50 at TLR7 was determined as 0.3 nM; on TLR8 it was 15.4 nM.

With `Cc1cc(-c2[nH]c3cc(C4CCC5(CC4)CN(C(=O)[C@H]4CCCN4C)C5)sc3c2C(C)C)cn2ncnc12` [Example 207], the results for the EC50 on TLR7 and at TLR8 were 0.7 nM and 19.9 nM, respectively.

With `Cc1cc(-c2[nH]c3cc(C4CCC5(CC4)CN(C(=O)CN4CCCC4)C5)sc3c2C(C)C)cn2ncnc12` [Example 208], the EC50 at TLR7 was 0.3 nM; on TLR8, 12.3 nM.

For the molecule `Cc1cc(-c2[nH]c3cc(-c4ccc5c(c4)CNC5)sc3c2C(C)C)cn2ncnc12` [Example 209, 2-(isoindolin-5-yl)-6-isopropyl-5-(8-methyl-[1,2,4]triazolo[1,5-a]pyridin-6-yl)-4H-thieno[3,2-b]pyrrole], the EC50 on TLR7 is 15.4 nM; at TLR8, 1.7 nM.

In the case of `Cc1cc(-c2[nH]c3cc(-c4ccc(N5CCNCC5)nc4)sc3c2C(C)C)cn2ncnc12` [Example 210], the figures for the EC50 on TLR7 and on TLR8 were 0.5 nM and 2.3 nM, respectively.

For `Cc1cc(-c2[nH]c3cc(-c4ccc5c(c4)CNCC5)sc3c2C(C)C)cn2ncnc12` [Example 211], the half-maximal effective concentration (EC50) at TLR7 was 1.9 nM; on TLR8, 0.5 nM.

Consider `Cc1cc(-c2[nH]c3cc(-c4ccc5nc(C6N[C@@H]7CC[C@H]6C7)[nH]c5c4)sc3c2C(C)C)cn2ncnc12` (some centres unmarked) [Example 212], for which the EC50 at TLR7 is 0.2 nM; at TLR8 it was 1.6 nM.

With `Cc1cc(-c2[nH]c3cc(-c4cnc5c(c4)CNCC5)sc3c2C(C)C)cn2ncnc12` [Example 213], the EC50 at TLR7 was 0.8 nM; on TLR8 it was 0.2 nM.

With `Cc1cc(-c2[nH]c3cc(-c4ccc(N5CCNCC5)cc4)sc3c2C(C)C)cn2ncnc12` [Example 214], the EC50 at TLR7 was found to be 0.6 nM; at TLR8, 2.9 nM.

Turning to `Cc1cc(-c2[nH]c3cc(-c4cnn(C5CCNCC5)c4)sc3c2C(C)C)cn2ncnc12` [Example 215], the concentration for a half-maximal effect (EC50) is 0.3 nM on TLR7 and 2.3 nM at TLR8.

For `Cc1cc(N2CCNCC2)ncc1-c1cc2[nH]c(-c3cc(C)c4ncnn4c3)c(C(C)C)c2s1` [Example 216], the EC50 turned out to be 0.4 nM on TLR7 and 3.1 nM at TLR8.

For `Cc1nc(N2CCNCC2)ccc1-c1cc2[nH]c(-c3cc(C)c4ncnn4c3)c(C(C)C)c2s1` [Example 217], the EC50 at TLR7 came out at 0.2 nM; at TLR8 it was 6 nM.

In the case of `Cc1cc(-c2[nH]c3cc(-c4cnc5c(c4)CCNC5)sc3c2C(C)C)cn2ncnc12` [Example 218], the EC50 at TLR7 amounted to 3.3 nM; on TLR8, 1 nM.

As for `Cc1cc(-c2[nH]c3cc(-c4cnn5c4CNCC5)sc3c2C(C)C)cn2ncnc12` [Example 219], the EC50 on TLR7 was determined as 34.9 nM; on TLR8, 4.6 nM.

As for `Cc1nn(C2CCNCC2)cc1-c1cc2[nH]c(-c3cc(C)c4ncnn4c3)c(C(C)C)c2s1` [Example 220], the concentration for a half-maximal effect (EC50) on TLR7 came out at 1.2 nM; on TLR8 it was 11.2 nM.

In the case of `Cc1cc(-c2[nH]c3cc(-c4ccc(C5CCNCC5)cc4)sc3c2C(C)C)cn2ncnc12` [Example 221], the EC50 amounted to 0.8 nM at TLR7 and 3.3 nM on TLR8.
